According to US7348401B2, “Peptides that inhibit complement activation” (priority 2003, dated 2008):
Where no end group is shown, it is not given here.

Legend:
[1] = system: classical pathway; antibody sensitized sheep erythrocyte cells; test: Classical pathway hemolytic assay (RBC hemolysis assay); assay type: cell-based, human; settings: for inhibition of hemolysis: 100 uM peptide
Protocol: Inhibition of the classical pathway by the peptides was measured using a standard hemolysis assay, which monitors the lysis of sheep erythrocytes as a result of terminal complex formation (see e.g. FIG. 1, FIG. 10). Various concentrations of peptide were incubated with 50 μL pooled human plasma (diluted 1:30 with GVB^++), 5×10^7 antibody sensitized sheep erythrocyte cells, and GVB^++ buffer to a final volume of 200 μL. The reaction was incubated at 37° C. for one hour and centrifuged. The percentage of lysis was determined by measuring the optical density of the supernatant at 414 nm. 100% lysis was determined by the optical density at 414 nm of the supernatant from a control sample consisting of 5×10^7 antibody sensitized sheep erythrocyte cells in water. The percent inhibition was calculated as the (% lysisno peptide−% lysispeptide)/% lysisno peptide×100.

[2] = system: Human mesangial cells; test: Inhibition of complement mediated cell death, in vitro autoimmune glomerulonephritis model; assay type: cell-based; settings: 250 μM of peptide, 48 hours
Protocol: The peptides were evaluated for their ability to inhibit complement mediated cell death in an in vitro autoimmune glomerulonephritis model. Human mesangial cells were cultured to approximately 75% confluency and then treated for one hour at 37° C. with phosphatidyl inositol-phospholipase C to remove GPI-anchored complement regulatory proteins. Following enzyme treatment, the cells were washed and equilibrated in GSBM growth medium supplemented with 2.5% fetal bovine serum for one hour at 37° C. The cells were then incubated in pooled human plasma supplemented with 100 μg/mL of heat aggregated human IVIG (generated by heating at 63° C. for 30 minutes) either in the presence of absence of various concentrations of peptides for 48 hours at 37° C. The source of complement was replenished every 12 hours during the incubation by adding 25% of the original volume of fresh plasma along with heat aggregated IVIG and peptides so that the same final concentrations were maintained. Following the 48 hour incubation, the cells were stained with the commercial Live/Dead Viability kit (Molecular Probes) and the relative fluorescence was measured to determine the extent of cell death. The percent of cell death was calculated versus a control sample in which heat-inactivated plasma, (heated to 56° C. for 30 minutes) as a means of inactivating complement components, was used.

[3] = target: T1, complement component C5 (Homo sapiens, UniProt P01031); test: Phage clone binding to C5 and free-peptide competition assay; settings: for competition among phage clones and free peptides for binding to C5: free peptide at 50, 10 and 1 μM; for specific binding to complement component C5: phage panning / phage clone binding
T1 construct: purchased Advanced Research Technologies
T1 sequence (P01031 19-1676): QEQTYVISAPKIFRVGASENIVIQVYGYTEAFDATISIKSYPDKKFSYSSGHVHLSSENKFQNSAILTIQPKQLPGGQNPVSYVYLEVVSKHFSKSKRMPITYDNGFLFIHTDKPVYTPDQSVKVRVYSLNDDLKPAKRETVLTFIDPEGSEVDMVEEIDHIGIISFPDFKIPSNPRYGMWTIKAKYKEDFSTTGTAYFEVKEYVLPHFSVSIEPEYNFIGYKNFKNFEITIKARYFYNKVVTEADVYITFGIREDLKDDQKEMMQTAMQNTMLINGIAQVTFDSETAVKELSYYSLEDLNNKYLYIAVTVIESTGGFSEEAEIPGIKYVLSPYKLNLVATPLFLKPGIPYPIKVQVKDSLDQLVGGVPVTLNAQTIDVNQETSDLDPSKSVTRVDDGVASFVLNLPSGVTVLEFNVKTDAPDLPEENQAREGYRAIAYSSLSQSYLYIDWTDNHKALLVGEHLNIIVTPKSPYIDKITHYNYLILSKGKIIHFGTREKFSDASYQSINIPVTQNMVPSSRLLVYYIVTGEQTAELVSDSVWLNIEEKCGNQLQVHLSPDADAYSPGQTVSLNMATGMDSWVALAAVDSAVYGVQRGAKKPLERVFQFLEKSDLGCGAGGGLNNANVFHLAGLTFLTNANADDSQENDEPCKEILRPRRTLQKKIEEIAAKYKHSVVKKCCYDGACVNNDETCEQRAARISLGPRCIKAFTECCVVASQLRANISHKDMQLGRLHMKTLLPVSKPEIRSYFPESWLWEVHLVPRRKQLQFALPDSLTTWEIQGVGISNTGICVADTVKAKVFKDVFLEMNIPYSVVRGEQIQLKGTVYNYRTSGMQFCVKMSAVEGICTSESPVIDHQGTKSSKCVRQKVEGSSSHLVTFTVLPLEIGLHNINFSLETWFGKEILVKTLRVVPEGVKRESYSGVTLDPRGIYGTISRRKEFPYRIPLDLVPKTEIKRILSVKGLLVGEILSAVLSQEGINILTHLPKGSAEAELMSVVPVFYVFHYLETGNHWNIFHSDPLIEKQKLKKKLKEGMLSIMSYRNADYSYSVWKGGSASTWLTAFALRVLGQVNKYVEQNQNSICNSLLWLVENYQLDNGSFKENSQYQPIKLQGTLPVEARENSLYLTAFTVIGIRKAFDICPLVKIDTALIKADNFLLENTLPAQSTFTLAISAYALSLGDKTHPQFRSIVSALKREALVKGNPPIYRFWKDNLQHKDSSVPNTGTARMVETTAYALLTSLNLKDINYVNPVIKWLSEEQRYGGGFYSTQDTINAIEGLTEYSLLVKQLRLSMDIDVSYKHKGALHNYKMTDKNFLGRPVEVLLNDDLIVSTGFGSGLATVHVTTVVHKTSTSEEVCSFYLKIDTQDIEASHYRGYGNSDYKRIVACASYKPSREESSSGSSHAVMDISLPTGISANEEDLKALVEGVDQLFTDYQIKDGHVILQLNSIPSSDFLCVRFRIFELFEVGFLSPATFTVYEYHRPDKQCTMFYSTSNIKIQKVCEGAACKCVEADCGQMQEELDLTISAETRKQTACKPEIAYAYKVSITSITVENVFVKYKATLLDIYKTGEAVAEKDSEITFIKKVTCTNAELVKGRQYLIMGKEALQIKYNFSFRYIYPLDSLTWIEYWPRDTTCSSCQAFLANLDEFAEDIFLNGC
Protocol: Peptides were identified by panning an M13 phage library (New England Biolabs), a random 12mer peptide library with a diversity of 10^11 different peptide structures, against complement component C5. The phage library was panned against C5 using three different methods for immobilizing C5. The binding reactions all contained 2×10^11 phage particles in PBS containing 0.5% BSA and 0.3% Tween 20. The binding reactions were carried out at 25° C. for two hours and then unbound phage were removed by washing 5 times with PBS containing 0.5% BSA and 0.3% Tween20. The phage were eluted by acid (0.2 M Glycine pH 2.2, 1 mg/mL BSA) and immediately neutralized with 1 M Tris pH 9.1. Following elution, recovered phage were amplified in ER2738 E. coli (NEB) and subjected to two more rounds of panning as described above. The methods for immobilizing C5 include directly coating C5 (Advanced Research Technologies) to the surface (1 μg/mL), capturing biotinylated C5 (1 μg/mL) on a neutravidin (Pierce) coated surface, and capturing biotinylated C5a (1 μg/mL) on a neutravidin (Pierce) coated surface. C5 and C5a (Quidel) were biotinylated by incubating with 10 fold molar excess of Sulfo-NHS-LC-LC-Biotin for 2 hours at room temperature at pH 7.4 and then removing excess biotin by gel filtration. A negative selection was performed in the final round against neutravidin for the two latter screening methods. DNA from twenty randomly selected clones from each of the three final libraries was isolated and sequenced.
The binding sites of the peptides were further probed via C5-binding competition assays. Increasing concentrations of each phage clone were incubated for 2 hours with 200 ng of biotinylated C5 in PBS containing 0.5% BSA. The phage bound C5 complex was captured on a neutravidin coated microplate for 20 minutes at room temperature and then washed with PBS containing 0.5% BSA. A peroxidase labeled anti-M13 antibody (Pharmacia) was used to detect the amount of phage bound to C5 with OPD substrate. Competition assays with free peptide were carried out in a similar manner except that one concentration of each phage clone was used which was determined as the concentration giving approximately 50% binding in the previous titration. Free peptide was added to the phage clones at concentrations of 50, 10 and 1 μM and incubated with the biotinylated C5 and the assay was carried out as above.

[4] = system: classical pathway; test: Classical pathway component assay (immune complex, ELISA for C5a, SC5b-9, C3a); assay type: biochemical, human; settings: classical pathway, immune complex, human plasma
Protocol: The inhibition of the classical pathway by the peptides was measured by incubating human plasma in the presence and absence of peptides with an immune complex generated on a surface and then monitoring for the production of complement components C5a, SC5b-9, and C3a. To generate the immune complex, a 10 mg/mL solution of BSA in PBS was incubated at 56° C. for 30 minutes and then used to coat the surface of a microplate by diluting to 50 μg/mL at pH 9.6 and incubating for one hour at 37° C. The plate was washed and then incubated with 18 μg/mL mouse anti-BSA IgG2a (Sigma) for one hour at 37° C. Pooled human plasma with and without various concentrations of peptide were incubated for 30 minutes at 37° C. with the generated immune complex and the reaction was stopped with the addition of EDTA. The plasma samples were then analyzed with commercially available ELISA's for the production of C5a (Pharmingen), SC5b-9 (Quidel), and C3a (Quidel).

[5] = system: alternative pathway; test: Alternative activation pathway C.A. membrane assay (ELISA for C5a, SC5b-9, C3a); assay type: biochemical; settings: cellulose acetate hemodialysis membrane, human plasma
Protocol: Inhibition of the alternative pathway by the peptides was determined by incubating pooled human plasma in the presence and absence of various concentrations of peptide with 20 mg of cellulose acetate hemodialysis membrane at 37° C. for one hour. The reaction was stopped with EDTA and then the samples were analyzed with commercially available ELISA's for the production of C5a (Pharmingen), SC5b-9 (Quidel), and C3a (Quidel).

[6] = system: complement system activated by zymosan; test: Alternative activation pathway zymosan assay (ELISA for C5a, SC5b-9, C3a); assay type: biochemical; settings: 2 mg/mL zymosan, human plasma
Protocol: The peptides were evaluated for involvement in activation of the complement system by the presence of zymosan. Zymosan, or yeast cell wall, has largely been described as an alternative pathway activator. In addition, there are sugars on the surface of the yeast cell wall which are capable of activating the lectin pathway. Therefore, zymosan can be considered as a general complement activator.
Varying concentrations of peptide were incubated with 2 mg/mL zymosan in pooled human plasma. The reactions were incubated at 37° C. for one hour and then stopped by the addition of EDTA. The samples were centrifuged, the plasma removed, and analyzed with commercially available ELISA's for the production of C5a (Pharmingen), SC5b-9 (Quidel), and C3a (Quidel).

Sequence | inhibitory activity in RBC hemolysis assay compared with parent peptide [1] | inhibition of complement mediated cell death [2] | competition among phage clones and free peptides for binding to C5 [3] | specific binding to complement component C5 [3] | inhibition of hemolysis [1] | C3a production [4] | C5a production [4] | SC5b-9 production [4] | C3a production [5] | C5a generation [5] | SC5b-9 generation [5] | C3a generation [6] | C5a production [6] | SC5b-9 production [6]
TEEVRWEFPL [Peptide 117] | enhanced the levels of inhibitory activity | up to 69% | – | – | – | – | – | – | – | – | – | – | – | –
SFNDLLWRWEWP [Peptide 7] | – | – | significant competition | specifically bound complement component C5 | significant inhibition of hemolysis | enhanced production | inhibited | inhibited | activated | inhibited | inhibited | activated | inhibited | inhibited
DSTWTNFRWEFY [Peptide 8] | – | – | significant competition | specifically bound complement component C5 | significant inhibition of hemolysis | neither of these peptides produced an effect | dose-dependent increase in the inhibition | dose-dependent increase in the inhibition | no effect | dose-dependent inhibition | dose-dependent inhibition | no observeable effect | inhibited | inhibited
TQDNRWEFPLRV [Peptide 13] | almost comparable activity | – | significant competition | specifically bound complement component C5 | significant inhibition of hemolysis | neither of these peptides produced an effect | dose-dependent increase in the inhibition | dose-dependent increase in the inhibition | no effect | dose-dependent inhibition | dose-dependent inhibition | no observeable effect | inhibited | inhibited
